Laboratory results reported in ChEMBL document CHEMBL1136998, “Bis-neonicotinoid insecticides: Observed and predicted binding interactions with the nicotinic receptor” (Bioorg Med Chem Lett, 2009).

Assay: Displacement of [3H]IMI from Drosophila melanogaster brain nAChR
`O=[N+]([O-])/N=C1/N(CCCCCCCCN2CCN(Cc3ccc(Cl)nc3)/C2=N\[N+](=O)[O-])CCN1Cc1ccc(Cl)nc1` showed a Ki of 0.88 µM.
With `O=[N+]([O-])/N=C1/N(Cc2ccc(CN3CCN(Cc4ccc(Cl)nc4)/C3=N\[N+](=O)[O-])cc2)CCN1Cc1ccc(Cl)nc1` the Ki was 1.18 µM.
Work on `O=[N+]([O-])/N=C1/N(CCCCCCCN2CCN(Cc3ccc(Cl)nc3)/C2=N\[N+](=O)[O-])CCN1Cc1ccc(Cl)nc1` yielded a Ki of 0.14 µM.
In the case of `O=[N+]([O-])/N=C1/N(CCCCCCCCCN2CCN(Cc3ccc(Cl)nc3)/C2=N\[N+](=O)[O-])CCN1Cc1ccc(Cl)nc1`, the Ki is reported as 1.38 µM.
`O=[N+]([O-])/N=C1/N(CCCCCN2CCN(Cc3ccc(Cl)nc3)/C2=N\[N+](=O)[O-])CCN1Cc1ccc(Cl)nc1` showed a Ki of 5.35 µM.
With `O=[N+]([O-])/N=C1/N(CC/C=C\CCN2CCN(Cc3ccc(Cl)nc3)/C2=N\[N+](=O)[O-])CCN1Cc1ccc(Cl)nc1` the Ki was 0.78 µM.
For `O=[N+]([O-])/N=C1/N(C/C=C/C=C/CN2CCN(Cc3ccc(Cl)nc3)/C2=N\[N+](=O)[O-])CCN1Cc1ccc(Cl)nc1`, the Ki was 0.97 µM.
`O=[N+]([O-])/N=C1/N(CC/C=C/CCN2CCN(Cc3ccc(Cl)nc3)/C2=N\[N+](=O)[O-])CCN1Cc1ccc(Cl)nc1` gave a Ki of 2.49 µM.
Work on `O=[N+]([O-])/N=C1/N(CCCCCCN2CCN(Cc3ccc(Cl)nc3)/C2=N\[N+](=O)[O-])CCN1Cc1ccc(Cl)nc1` yielded a Ki of 0.68 µM.

Assay: Displacement of [3H]IMI from house fly nAChR
Parameters: species or system Musca domestica
With `O=[N+]([O-])/N=C1/N(CCCCCCCCCCN2CCN(Cc3ccc(Cl)nc3)/C2=N\[N+](=O)[O-])CCN1Cc1ccc(Cl)nc1` the Ki was 110 µM.
With `O=[N+]([O-])/N=C1\N(Cc2ccc(Cl)nc2)CCN1CN1CCN(Cc2ccc(Cl)nc2)/C1=N\[N+](=O)[O-]` the Ki was 27 µM.
